Experimental findings from the NIST ThermoML archive (doi:10.1016/j.jct.2015.09.003) are described below.

Series [1] in a line: Molar enthalpy of transition or fusion. To be noted: Crystal; DSC.
The conditions of series [2]: Crystal; DTA.

Numbers after ± are expanded uncertainties.

As to `CC(C)(C)C1=CC=C(C(C)(C)C)C(=O)C1=O` [3,6-di-tert-butyl-o-benzoquinone], in series [1], the “Molar enthalpy of transition or fusion” value came to 6.69 ± 0.151 kcal/mol. For the same molecule, in series [2], the Normal melting temperature came to 202.2 ± 0.6 °C.

With `CC(C)(C)C1=CC(=O)C(=O)C(C(C)(C)C)=C1` [3,5-di-tert-butyl-o-benzoquinone], the “Molar enthalpy of transition or fusion” value in series [1] was determined as 6.26 ± 0.141 kcal/mol. Further, the Normal melting temperature in series [2] came to 115.4 ± 0.6 °C.
